How the values were obtained:
Assay type in all cases: cell-based, Human
mitochondrial Akt = assay: Akt recruitment to mitochondria in hypoxia, subcellular fractions by Western blotting; conditions: PC3 cells, 17-AAG 5 μM for 6 hr, NAC 1 mM, MitoTempo 25 μM
Description: FIG. 1 illustrates mitochondrial phosphoproteome in hypoxia. A: Phosphoproteome of prostate adenocarcinoma PC3 cells in hypoxia versus normoxia. Identified phosphosites met a minimum MaxQuant localization probability of 0.75 and a score difference of 5. Fold changes were calculated from the normalized Heavy/Light SILAC ratio. Six Akt target proteins showing increased phosphorylation in hypoxia are indicated. […] B: Ingenuity pathway analysis of mitochondrial phospho- and global proteome in hypoxia. […] D: PC3 cells in normoxia (N) or hypoxia (H) were fractionated in cytosol (Cyto) or mitochondrial (Mito) extracts and analyzed by Western blotting. pAkt, phosphorylated Akt (Ser473). TCE, total cell extracts. E: PC3 cells in hypoxia (H) were exposed to reoxygenation (O2) for the indicated time intervals and analyzed by Western blotting. N, normoxia. F: The indicated subcellular fractions isolated from normoxic (N) or hypoxic (H) PC3 cells were analyzed with an antibody to the Akt consensus phosphorylation site RxRxxS/T (Akt cons Ab) by Western blotting. Mito Sup, supernatant of mitochondrial extracts after preclearing with Akt cons Ab. G: PC3 cells in normoxia (N) or hypoxia (H) were treated with vehicle (Veh) or Hsp90 small molecule inhibitor 17-AAG (5 μM for 6 hr), and cytosolic (Cyto) or mitochondrial (Mito) extracts were analyzed by Western blotting. H: PC3 cells in normoxia (N) or hypoxia (H) were treated with vehicle (Veh), the antioxidant N-acetyl cysteine (NAC, 1 mM) or mitochondria-specific ROS scavenger, MitoTempo (MT, 25 μM), and subcellular fractions were analyzed by Western blotting. See also FIG. 9.
Human prostate adenocarcinoma PC3 and DU145, glioblastoma (GBM) LN229, and breast adenocarcinoma MCF-7 or MDA-231 cells were obtained from the American Type Culture Collection (ATCC, Manassas, Va.), and maintained in culture according to the supplier's specifications. Hypoxic treatment was carried out using an enclosed chamber (BioSpherix) flushed with a nitrogen and CO2 gas. […]

PC3 cells = assay: Cell cycle: DNA content by propidium iodide staining and flow cytometry; conditions: hypoxia, DCA 10 mM, MK2206 5 μM
Description: FIG. 13, related to FIG. 5, illustrates additional data regarding mitochondrial Akt signaling supports tumor growth in hypoxia in vivo. A: Human intracranial GBM samples (U251 cells) grown in immunocompromised mice were harvested at the indicated time intervals after stereotactic injection, and the number of mitotic cells was quantified. HPF, high-power microscopy field (n=6-7). Mean±SEM. *, p=0.01. B: Human intracranial GBM samples as in (A) were harvested at day 20 after stereotactic injection of U251 cells in immunocompromised mice, and analyzed for expression of HIF1α, phosphorylated PDK1 (pT346 Ab) or phosphorylated PDHE1α by immunohistochemistry. H&E, hematoxylin and eosin. Yellow lines were used to delineate the tumor mass within mice brain. Scale bar, 100 μm. […] C: Quantification of mitotic cells expressing phosphorylated PDK1 (pT346 Ab) in intracranial GBM harvested from immunocompromised mice at the indicated time intervals (n=5-7). […] D: Intracranial GBM samples as in (A) were analyzed for correlation between HIF1α luciferase activity and the number of PDK1-phosphorylated mitotic cells (pT346 Ab). […], 95% C.I.=0.1-0.9; p=0.02. […] E: PC3 cells in normoxia (N) or hypoxia (H) were treated with vehicle (Veh) or small molecule antagonists of PDK1 (DCA, 10 mM) or Akt (MK2206, 5 μM) and analyzed for DNA content by propidium iodide staining and flow cytometry. […]

cleaved caspase 3 = assay: Cleaved caspase 3 by Western blotting; conditions: PC3 cells, hypoxia; MK2206 1 μM, PX-866 10 μM
Description: FIG. 6 illustrates mitochondrial Akt regulation of stress signaling in hypoxia. A and B: PC3 cells in normoxia (N) or hypoxia (H) were treated with vehicle (Veh) or MK2206 (1 μM) (A) or transduced with pLKO or PDK1-directed shRNA (B) and analyzed for ROS production by CELLROX Green staining and flow cytometry. Upper panels, representative tracings. Bottom panels, quantification of ROS production under the various conditions tested (n=2). Mean±SD for both datasets. *, p=0.01-0.02; **, p=0.004; ns, not significant. C: The experimental conditions are as in (A) and treated cells were analyzed for cell viability by direct cell counting relative to control (n=3). Mean±SEM. ***, p<0.0001. D: PC3 cells in normoxia (N) or hypoxia (H) were incubated with vehicle (Veh) or small molecule inhibitors of Akt (MK2206, 1 μM) or PI3K (PX-866, 10 μM) and analyzed by Western blotting. E: PC3 cells stably silenced for PDK1 were reconstituted with vector, WT PDK1 or T346A PDK1 mutant and analyzed for cell viability by direct cell counting relative to control (n=3). Mean±SEM. ***, p=0.0002. F and G: PC3 cells in normoxia (N) or hypoxia (H) were transduced with pLKO or PDK1-directed shRNA (F) or control siRNA (Ctrl) or Akt1- or Akt2-directed siRNA (G), and analyzed by Western blotting. […] For all panels, data were analyzed using the two-sided unpaired Student's t test. […]

SMILES | accumulation / recruitment of Akt to mitochondria (mitochondrial Akt) | further results
C=CCNC1=C2C[C@@H](C)C[C@H](OC)[C@H](O)[C@@H](C)/C=C(\C)[C@H](OC(N)=O)[C@@H](OC)/C=C\C=C(/C)C(=O)NC(=CC1=O)C2=O [17-AAG, 17-allylaminogeldanamycin] | prevented the accumulation of mitochondrial Akt | 
CC(=O)N[C@@H](CS)C(=O)O [NAC, N-acetyl cysteine] | no effect | 
CC1(C)CC(NC(=O)C[P+](c2ccccc2)(c2ccccc2)c2ccccc2)CC(C)(C)N1[O] [MitoTempo] | inhibited Akt recruitment to mitochondria | 
O=C([O-])C(Cl)Cl.[Na+] [DCA, sodium dichloroacetate] |  | S-phase progression (PC3 cells): suppressed S-phase progression; population of tumor cells in G1/sub-G1 phase (PC3 cells): increased
C=CCN(/C=C1/C(=O)O[C@H](COC)[C@@]2(C)C1=C(O)C(=O)C1=C2[C@H](OC(C)=O)C[C@]2(C)C(=O)CC[C@@H]12)CC=C [PX-866] |  | cleaved caspase 3 (marker of apoptosis) (cleaved caspase 3): did not result in caspase activation
